A short description of experiment [1]: Binding affinity determined on Opioid receptor delta 1 in Guinea pig brain membranes using radioligand [3H]DADLE.
The nature of experiment [2]: Inhibition of [35S]GTP-gamma-S, binding from Opioid receptor delta 1 in Guinea pig Caudate stimulated by SNC80. (In general: Binding of GTPγS marks nucleotide exchange on a G protein.)

This passage reports Ki results from BindingDB's records for doi:10.1021/jm980511k (Research Triangle Institute, 1999).

SMILES strings stand for the structures.

On to `CC(C)[C@@H](CN1CC[C@@](C)(c2cccc(O)c2)[C@@H](C)C1)NC(=O)CCc1ccc(O)cc1` [3-(4-Hydroxy-phenyl)-N-{1-[4-(3-hydroxy-phenyl)-3,4-dimethyl-piperidin-1-ylmethyl]-2-methyl-propyl}-propionamide], for which the inhibitory constant (Ki) (commonly the dissociation constant of the complex between target and ligand, obtained from inhibition or displacement) in experiment [1] was > 5700 nM. In the case of `C[C@@H]1CN(C/C=C/c2ccccc2)CC[C@]1(C)c1cccc(O)c1` [3-[(3S,4S)-3,4-Dimethyl-1-((E)-3-phenyl-allyl)-piperidin-4-yl]-phenol], the values for the Ki in experiment [1] and in experiment [2] were 322 nM and 1.5 nM, respectively.
